The values that follow come from patent US7402593B2 (priority 2004, dated 2008).

The conditions of series [1]: compared with other PPIs such as omeprazole or lansoprazole; cited from earlier work.
The nature of the next series: in vivo. The following applies: dog, plasma, po, 50 mg/kg.

Take `COc1ccc2nc([S+]([O-])Cc3ncc(C)c(OC)c3C)[n-]c2n1.[Na+]` (racemic) [sodium salt of racemic tenatoprazole]: the “highest concentration of solution obtainable” value in the series “solubility in water” (room temperature) was not above 19 g/L.

With `COc1ccc2[nH]c([S+]([O-])Cc3ncc(C)c(OC)c3C)nc2n1` (racemic) [racemic tenatoprazole, 5-methoxy-2-[ [(4-methoxy-3,5-dimethyl-2-pyridyl)methyl]sulfinyl]imidazo[4,5-b]pyridine], in series [1], the “half-life in plasma relative to other PPIs” value is recorded as “approximately seven times longer”. Besides, in “in vivo”, the AUC(0-t) was determined as 156 µg·h/mL, the Cmax is 50.2 ng/mL and the Tmax is 1.5 h. Moreover, in the series “solubility in water” (water), the solubility was less than 1000 µg/mL.

One may read the AUC(0-t) as exposure summed from dosing to a finite time, without extrapolation to infinity. A higher AUC(0-t) goes with high exposure. As usually defined, the Cmax is the peak of the concentration-time curve. In general, Tmax refers to the time at which the peak concentration occurs. One may read the solubility as how much of the substance goes into solution per volume. A high value points to a readily soluble substance.
